# Measurements as given in publication PMC8002271, “Synthesis and Biological Activity Evaluation of Coumarin-3-Carboxamide Derivatives” (Molecules, 2021).
# Where two headings read alike, the source gives them in different places.
# What was measured:
# S. aureus TISTR 2392 = test: Antibacterial microbroth dilution MIC, S. aureus; assay type: cell-based; conditions: Staphylococcus aureus, read-out: MIC S. aureus
# Method: (§1) The antibacterial activities of coumarin derivatives 10, 12, 13, 14a–g, and 15 were evaluated against five reference standard bacteria, both gram-positive and gram-negative: B. cereus TISTR 2372, B. subtilis TISTR 001, S. aureus TISTR 2392, E. coli TISTR 073, and S. typhimurium TISTR 2519, using a standard microbroth dilution method.
# (§2) The MIC values of coumarin derivatives 10, 12, 13, 14a–g, and 15 were determined through the microbroth dilution method in 96-well microtitre plates. The bacterial cultures were prepared from overnight cultures on nutrient broth (NB) at 37 °C for 24 h by diluting in NB compared with 0.5 McFarland. Coumarin derivatives 10, 12, 13, 14a–g, and 15 (5000 µg/mL) were prepared in EtOH, and 128 µg/mL of these were added to the first wells. Two-fold serial dilutions were prepared, and final concentrations of 128 to 1 µg/mL were achieved. The positive controls for penicillin G were determined, with the final concentrations from 128 to 1 µg/mL. In addition, an extra row of EtOH was used as a vehicle control to determine its possible inhibitory activity. Finally, 10 µL of bacterial suspension was added to each well. After the bacteria were incubated at 37 °C for 24 h, the microtitre plates were visually examined for bacterial growth; the growth rate was monitored at the optical density at 600 nm with a microplate reader.
# B. subtilis TISTR 001 = test: Antibacterial microbroth dilution MIC, B. subtilis; assay type: cell-based; conditions: Bacillus subtilis, read-out: MIC B. subtilis
# Method: as §1, §2
# LLC-MK2 normal cell line = test: MTT cell viability assay, LLC-MK2 normal cells; assay type: cell-based; conditions: Macaca mulatta, read-out: IC50 LLC-MK2
# Method: (§3) The cell viability assays of coumarin derivatives 10, 12, 13, 14a–g, and 15 were conducted against three cancer cell lines (HepG2, HeLa, and MDA-MB-231) and one normal cell line (LLC-MK2) using an MTT assay.
# (§4) Stock solutions of coumarin derivatives 10, 12a, 13, 14a–g, and 15 were prepared in EtOH at a concentration of 5000 µg/mL. Prior to use, the stock solutions were further diluted to 128 µg/mL and added to the first wells. Two-fold serial dilutions were prepared, and final concentrations of 128 to 1 µg/mL in culture medium were achieved. Cells were seeded at a density of 5 × 10^4 cells/well in a 96-well plate and incubated for 16 h, followed by treatment with the test compounds. The control culture contained the carrier solvent of 2.5% dimethyl sulfoxide (DMSO). After 24 h, HepG2, HeLa, MDA-MB-231, and LLC-MK2 cells were then incubated with MTT (500 μg/mL) for 4 h. Then, DMSO was added to dissolve the blue formazan crystals formed, which were formed as a result of the action of cellular oxidoreductase enzymes on the MTT dye. Finally, the optical density at 450 nm was determined using a microplate reader.
# [1] = test system: S. typhimurium TISTR 2519; test: Antibacterial microbroth dilution MIC, S. typhimurium; assay type: cell-based; conditions: Salmonella enterica, 24 h, read-out: MIC S. typhimurium
# Method: as §1, §2
# HepG2 cancer cell line = test: MTT cell viability assay, HepG2; assay type: cell-based; conditions: read-out: IC50 HepG2
# Method: as §3, §4
# E. coli TISTR 073 = test: Antibacterial microbroth dilution MIC, E. coli; assay type: cell-based; conditions: Escherichia coli, read-out: MIC E. coli
# Method: as §1, §2
# B. cereus TISTR 2372 = test: Antibacterial microbroth dilution MIC, B. cereus; assay type: cell-based; conditions: Bacillus cereus, read-out: MIC B. cereus
# Method: as §1, §2
# HeLa cancer cell line = test: MTT cell viability assay, HeLa; assay type: cell-based; conditions: read-out: IC50 HeLa
# Method: as §3, §4
# Helicobacter pylori = test system: Helicobacter pylori; design: method as in PMID 16377035; conditions: cited from earlier work
# [2] = TISTR2392, Gram-positive, microbroth dilution, 37 °C, 24 h
# [3] = TISTR001, Gram-positive, microbroth dilution, 37 °C, 24 h
# [4] = LLC-MK2, normal cell line, MTT assay, 24 h treatment
# [5] = Gram-negative, microbroth dilution, 37 °C
# [6] = Homo sapiens, HepG2, 24 h, cancer cell line, MTT assay, 24 h treatment
# [7] = TISTR073, Gram-negative, microbroth dilution, 37 °C, 24 h
# [8] = TISTR2372, Gram-positive, microbroth dilution, 37 °C, 24 h
# [9] = Homo sapiens, HeLa, 24 h, cancer cell line, MTT assay, 24 h treatment
# [10] = cancer cell line, MTT assay, 24 h treatment
Structure (SMILES),MIC (S. aureus TISTR 2392; [2]) [µg/mL],MIC (B. subtilis TISTR 001; [3]) [µg/mL],IC50 (LLC-MK2 normal cell line; [4]) [µM],"MIC [1, 5] [µg/mL]",IC50 (HepG2 cancer cell line; [6]) [µM],melting point [°C],MIC (E. coli TISTR 073; [7]) [µg/mL],MIC (B. cereus TISTR 2372; [8]) [µg/mL],IC50 (HeLa cancer cell line; [9]) [µM],IC50 (HepG2 cancer cell line; [10]) [µM],IC50 (HeLa cancer cell line; [10]) [µM],"MIC (S. aureus TISTR 2392; TISTR2392, 24 h) [µg/mL]","MIC (B. subtilis TISTR 001; TISTR001, 24 h) [µg/mL]","IC50 (LLC-MK2 normal cell line; LLC-MK2, 24 h) [µM]",MIC [1] [µg/mL],"IC50 (HepG2 cancer cell line; Homo sapiens, HepG2, 24 h) [µM]","MIC (E. coli TISTR 073; TISTR073, 24 h) [µg/mL]","MIC (B. cereus TISTR 2372; TISTR2372, 24 h) [µg/mL]","IC50 (HeLa cancer cell line; Homo sapiens, HeLa, 24 h) [µM]",MIC H. pylori (Helicobacter pylori) [µg/mL]
"CC(C)=CCc1cc2cc(C(=O)Nc3ccc(Cl)cc3)c(=O)oc2cc1O [14c, N-(4-Chlorophenyl)-7-hydroxy-6-(3-methylbut-2-en-1-yl)-2-oxo-2H-chromene-3-carboxamide]",> 128,> 128,66.8,> 128,30.3,282 to 283,> 128,> 128,14,–,–,–,–,–,–,–,–,–,–,–
"CC(C)=CCc1cc2cc(C(=O)Nc3cc(F)ccc3F)c(=O)oc2cc1O [14e, N-(2,5-Difluorophenyl)-7-hydroxy-6-(3-methylbut-2-en-1-yl)-2-oxo-2H-chromene-3-carboxamide]",> 128,> 128,1.33,> 128,2.62 to 4.85,248 to 250,> 128,> 128,0.39 to 0.75,2.62,0.39,–,–,–,–,–,–,–,–,–
"CN(C)c1ccc2cc3ccc(N(C)C)cc3nc2c1 [Acridine orange, acridine orange, reference compound]",–,–,82.3,–,5.72,–,–,–,6.59,–,–,–,–,–,–,–,–,–,–,–
"CC(C)=CCc1cc2cc(C(=O)Nc3ccc(Br)cc3)c(=O)oc2cc1O [14d, N-(4-Bromophenyl)-7-hydroxy-6-(3-methylbut-2-en-1-yl)-2-oxo-2H-chromene-3-carboxamide]",> 128,> 128,> 100,> 128,45.8,276 to 277,> 128,> 128,37.4,–,–,–,–,–,–,–,–,–,–,–
"CC(C)=CCc1cc2cc(C(=O)Nc3ccc(C)cc3)c(=O)oc2cc1O [14f, 7-Hydroxy-6-(3-methylbut-2-en-1-yl)-2-oxo-N-(p-tolyl)-2H-chromene-3-carboxamide]",> 128,> 128,85.3,> 128,> 100,276 to 277,> 128,> 128,> 100,–,–,–,–,–,–,–,–,–,–,–
"COc1cccc2c1C(=O)c1c(O)c3c(c(O)c1C2=O)C[C@@](O)(C(=O)CO)C[C@@H]3O[C@H]1C[C@H](N)[C@H](O)[C@H](C)O1 [Doxorubicin, doxorubicin, reference compound]",–,–,63.5,–,1.91,–,–,–,1.18,–,–,–,–,–,–,–,–,–,–,–
"CC1(C)S[C@@H]2[C@H](NC(=O)Cc3ccccc3)C(=O)N2[C@H]1C(=O)O [penicillin G, reference compound]",16,2,–,64,–,–,32,16,–,–,–,–,–,–,–,–,–,–,–,–
"CC(C)=CCc1cc2cc(C(=O)Nc3ccccc3)c(=O)oc2cc1O [14a, 7-Hydroxy-6-(3-methylbut-2-en-1-yl)-2-oxo-N-phenyl-2H-chromene-3-carboxamide]",> 128,> 128,0.48,> 128,4.33,258 to 259,> 128,> 128,10.4,–,–,–,–,–,–,–,–,–,–,–
"CC(C)=CCc1cc2ccc(=O)oc2cc1O [compound 15, 6-(3-Methyl-2-buteny1)-7-hydroxycoumarin]",–,–,–,–,–,–,–,–,–,–,–,> 128,> 128,6.87,> 128,9.13,> 128,> 128,13.5,–
O=C(O)c1ccc(NC(=O)c2cc3ccccc3oc2=O)cc1 [4a],–,–,–,–,–,–,–,–,–,–,–,–,–,–,–,–,–,–,–,1
"CC(C)=CCc1cc2cc(C(=O)O)c(=O)oc2cc1O [compound 13, 3-carboxy-6-(3-methyl-2-butenyl)-7-hydroxy-coumarin]",64,128,38,> 128,81.7,237 to 238,> 128,32,26.4,–,–,–,–,–,–,–,–,–,–,–
"CC1(C)C=Cc2cc3cc(C(=O)Nc4ccccc4)c(=O)oc3cc2O1 [compound 12, 8,8-dimethyl-2-oxo-N-phenyl-2H,8H-pyrano[3,2-g]chromene-3-carboxamide]",> 128,> 128,> 100,> 128,2.35,187 to 188,> 128,> 128,> 100,–,–,–,–,–,–,–,–,–,–,–
"CC1(C)C=Cc2cc3cc(C(=O)O)c(=O)oc3cc2O1 [compound 10, 8,8-dimethyl-2-oxo-2H,8H-pyrano[3,2-g]chromene-3-carboxylic acid]",64,128,> 100,> 128,> 100,187 to 188,> 128,128,80.4,–,–,–,–,–,–,–,–,–,–,–
"COc1ccc(NC(=O)c2cc3cc(CC=C(C)C)c(O)cc3oc2=O)cc1 [14g, 7-Hydroxy-N-(4-methoxyphenyl)-6-(3-methylbut-2-en-1-yl)-2-oxo-2H-chromene-3-carboxamide]",> 128,> 128,> 100,> 128,> 100,259 to 261,> 128,> 128,> 100,–,–,–,–,–,–,–,–,–,–,–
"CC(C)=CCc1cc2cc(C(=O)Nc3ccc(F)cc3)c(=O)oc2cc1O [14b, N-(4-Fluorophenyl)-7-hydroxy-6-(3-methylbut-2-en-1-yl)-2-oxo-2H-chromene-3-carboxamide]",> 128,> 128,> 100,> 128,2.62 to 4.85,259 to 261,> 128,> 128,0.39 to 0.75,4.85,0.75,–,–,–,–,–,–,–,–,–
